Source: publication PMC11350758, “Development of Xanthoangelol-Derived Compounds with Membrane-Disrupting Effects against Gram-Positive Bacteria” (Antibiotics, 2024)
Values after ≈ are worked out from the molar mass of the structure shown.

What was measured:
Assay type in all cases: cell-based
[1] = test system: preformed S. aureus ATCC43300 biofilm; experiment: Biofilm disruption assay (crystal violet); settings: biofilm grown for 24 h
Protocol: Bacterial biofilms created by the aggregation of bacteria is considered as one of the main reasons for the development of drug resistance. […] Subsequently, we further assessed the efficiency of 9h to eradicate the preformed biofilm. Matured S. aureus biofilm (grown for 24 h) was treated with compound 9h, and the rate of biofilm disruption was then assessed by the crystal violet staining assay.
Biofilm disruption: Briefly, S. aureus ATCC43300 (1 × 10^6 CFU/mL) was incubated in 96-well plates for 24 h to create biofilms. Next, the planktonic supernatant cells were removed. […] Then, the treated biofilm was determined by crystal violet assay. The OD values were measured at 575 nm. Biofilm disruption (%) = (ODcompound − ODblank)/(ODpositive control − ODblank) × 100%. All biological experiments were repeated three times.

S. aureus ATCC43300 [2] = experiment: Resistance development assay (serial passage); settings: serial passage at 1/2 MIC for 20 days
Protocol: The rapid increase in bacterial resistance to antibiotics is a major challenge in clinical treatment, and in order to assess the drug resistance development for compound 9h, we performed a drug resistance assay against S. aureus ATCC43300. Norfloxacin was selected as the positive control. The S. aureus cells were incubated with sub-MIC (1/2 MIC) concentration of compound 9h and were serially passaged for a duration of 20 days.
Resistance was defined as a more than 4-fold increase in the tested compound in MIC when compared to the beginning value. Briefly, S. aureus ATCC43300 was cultured (37 °C, 200 rpm) in MHB broth for 5 h and diluted to 1 × 10^6 CFU/mL. Then, the bacteria were cultured with compound 9h at a sub-MIC concentration (1/2 MIC) for 18 h. The MICs were determined according to this method for consecutive 20 days. All biological experiments were repeated three times.

S. aureus ATCC43300 [3] = experiment: Cytoplasmic membrane depolarization assay, DiSC3(5); settings: 16 μg/mL, at 20 min
Protocol: To explore the antibacterial mechanism of compound 9h, a cytoplasmic membrane depolarization assay was performed against S. aureus ATCC43300 using 3,3′-dipropylthiadicarbocyanine iodide (DiSC3(5)) assay. In general, DiSC3(5) could penetrate the intact cell membranes and was quenched when accumulated inside the bacterial cells. Once the cell membrane was destroyed, DiSC3(5) was released from the cell membrane, leading to a significant increase in fluorescence intensity. […] Moreover, the fluorescence intensity in S. aureus increased in a dose-dependent manner with increasing concentrations of 9h.
Mid-log S. aureus ATCC43300 was collected and then washed with PBS three times. Bacterial suspension (1.0 × 10^8 CFU/mL, 150 μL) was added to a black 96-well plate, and then fluorescent dye DiSC3(5) (10 μM, 50 μL) was pipetted into each well of plates and preincubated in the dark for 30 min. After the incubation, the fluorescence intensity was measured every minute for 6 min using a microplate reader (SpectraMax i3x, Molecular Devices, Sunnyvale, CA, USA) (λex/λem = 622 nm/670 nm). […] All biological experiments were repeated three times.

S. aureus ATCC43300 [4] = experiment: Cell membrane permeabilization, PI uptake assay; settings: 16 μg/mL, at 20 min
Protocol: The cell membrane permeabilization of compound 9h against S. aureus ATCC43300 was assessed by PI uptake assay. PI could only pass through the impaired cell membrane and had been widely used to evaluate the cell membrane permeability. When the cell membranes were disrupted, PI entered into the cell membrane, leading to a significant improvement in fluorescence intensity. Therefore, the degree of membrane damage could be reflected by observing the fluorescence intensity in S. aureus. […] Compared with the control group, the fluorescence intensity (at 20 min) increased approximately 5-fold after the addition of 9h (16 μg/mL).
Mid-log S. aureus ATCC43300 was collected and then washed with PBS three times. Bacterial suspension (1.0 × 10^8 CFU/mL, 150 μL) was added to a black 96-well plate; following this, fluorescent dye PI (10 μM, 50 μL) was added to each well of plates, and they were preincubated in the dark for 30 min. After the incubation, the fluorescence intensity was detected every minute for 6 min using a microplate reader (λex/λem = 535 nm/615 nm). […] The fluorescence intensity was determined similarly for another 14 min. All biological experiments were repeated three times.

[5] = test system: Staphylococcus aureus ATCC43300, methicillin-resistant strain; experiment: microbe, parasite or virus in culture; settings: ATCC 43300 / MRSA; Staphylococcus aureus ATCC43300 (MRSA); read-out: MIC S. a 43300
Outline: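 MIC is read after 24 h at 37 °C from twofold compound dilution series in TSB broth, each combined with an equal volume of a 10^6 CFU/mL bacterial suspension per CLSI guidance.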

S. aureus ATCC43300 [6] = experiment: DNA leakage study; settings: 16 μg/mL
Protocol: The destruction of bacterial cell membranes usually causes the leakage of macromolecules, including DNA and proteins. To investigate the effect of the compound 9h on the leakage of cytoplasmic contents, we performed DNA and protein leakage assays against S. aureus ATCC43300. The degree of damage to the bacterial cell membrane could be reflected by the concentrations of DNA and protein. The non-membrane-targeted antibiotic ciprofloxacin, membrane-targeted peptide melittin, and PBS were used as controls. […] A similar result were also observed in the leakage of protein with S. aureus (Figure 8C).
Mid-log S. aureus ATCC43300 was collected and resuspended in PBS (1.0 × 10^8 CFU/mL). […] The concentration of the protein was determined according to the method of the BCA assay kit (Thermo Fisher Scientific, Waltham, MA, USA), and the concentration of DNA in the supernatant was tested by a micro-spectrophotometer. All biological experiments were repeated three times.

[7] = test system: Gram-negative bacteria tested; experiment: MIC, summary over the Gram-negative bacteria tested; settings: read-out: MICs against the Gram-negative bacteria tested
Protocol: All target derivatives were assessed for their in vitro antibacterial activities using a broth microdilution assay to test their minimum inhibitory concentrations (MICs) against six Gram-positive strains (S. aureus ATCC31007, S. aureus ATCC25923, S. aureus ATCC43300, E. faecalis ATCC29212, B. subtilis ATCC9372, and S. epidermidis ATCC12228) and four Gram-negative strains (A. baumannii ATCC19606, K. pneumonia ATCC10031, E. coli ATCC25922, and P. aeruginosa ATCC27853). These compounds were also evaluated for their hemolytic activities and membrane selectivity by determining their HC50 (the concentration required to lyse 50% of red blood cells) and SI (HC50/MICs) values, respectively, and vancomycin was used as the positive drug.
MICs of the derivatives were determined by the micro broth dilution method according to the American Clinical and Laboratory Standards Institute (CLSI) standards. Briefly, 2-fold serial dilutions of target compounds were prepared in 96-well plates containing TSB broth. An equal volume of bacterial suspension (10^6 CFU/mL) was then pipetted into each well, and the mixture was incubated at 37 °C for 24 h. […] All biological experiments were repeated three times.

CC(=O)c1c(OCCCNCCCN2CCN(C)CC2)c2c(c3c1OC(C)(CCC=C(C)C)C=C3)OC(C)(CCC=C(C)C)C=C2 (centres unmarked) [Compound 9h, 1-(2,8-Dimethyl-2,8-bis(4-methylpent-3-en-1-yl)-5-(3-((3-(4-methylpiperazin-1-yl)propyl)amino)propoxy)-2H,8H-pyrano [2,3-f]chromen-6-yl)ethan-1-one]
eradication of preformed S. aureus biofilm ([1]; 8 μg/mL): about 19.83% | eradication of preformed S. aureus biofilm ([1]; 1× MIC (2 μg/mL)): 11.65% | fold increase in MIC (S. aureus ATCC43300 [2]): ≤ 4 fold | increase of DiSC3(5) fluorescence intensity vs blank control (S. aureus ATCC43300 [3]): about 5 fold | increase of PI fluorescence intensity vs control group (S. aureus ATCC43300 [4]): approximately 5 fold | MIC [5]: 2 µg/mL (≈ 3.15 µM) | concentration of DNA excreted vs blank control (S. aureus ATCC43300 [6]): approximately 5.5 fold | MIC [7]: 4 to 16 µg/mL (≈ 6.31 to 25.2 µM)
